Laboratory results: ChEMBL document CHEMBL5357082, “Identification and Optimization of Small Molecule Pyrazolopyrimidine TLR7 Agonists for Applications in Immuno-oncology” (ACS Med Chem Lett, 2024)

Key:
Cytochrome P450 2D6 = Cytochrome P450 2D6 (Homo sapiens, UniProt P10635); test: Inhibition of CYP2D6 (unknown origin); type: ADME
Cytochrome P450 2C19 = Cytochrome P450 2C19 (Homo sapiens, UniProt P33261); test: Inhibition of CYP2C19 (unknown origin); type: ADME
Cytochrome P450 3A4 [1] = target: T1, Cytochrome P450 3A4 (Homo sapiens, UniProt P08684); test: Inhibition of CYP3A4 (unknown origin) using BFC as substrate preincubated with compound followed by substrate addition at 30 mins; type: ADME
T1 sequence (P08684 whole entry): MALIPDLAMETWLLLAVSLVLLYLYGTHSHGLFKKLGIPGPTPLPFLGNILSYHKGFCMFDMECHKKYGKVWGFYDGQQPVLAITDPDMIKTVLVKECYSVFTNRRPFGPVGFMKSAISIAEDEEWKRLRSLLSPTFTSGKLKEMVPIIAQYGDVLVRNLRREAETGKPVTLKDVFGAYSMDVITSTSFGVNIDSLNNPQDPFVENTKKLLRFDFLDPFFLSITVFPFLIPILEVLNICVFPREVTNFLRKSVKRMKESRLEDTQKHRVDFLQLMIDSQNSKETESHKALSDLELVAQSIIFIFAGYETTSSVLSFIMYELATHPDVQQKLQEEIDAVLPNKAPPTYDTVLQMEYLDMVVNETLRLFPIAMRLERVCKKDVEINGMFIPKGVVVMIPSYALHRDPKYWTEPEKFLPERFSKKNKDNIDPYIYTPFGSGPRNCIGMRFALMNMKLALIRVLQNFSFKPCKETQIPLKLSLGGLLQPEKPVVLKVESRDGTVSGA

Toll-like receptor 7 [2] = target: T2, Toll-like receptor 7 (Mus musculus, UniProt P58681); test: Agonist activity at mouse TLR7
T2 sequence (P58681 whole entry): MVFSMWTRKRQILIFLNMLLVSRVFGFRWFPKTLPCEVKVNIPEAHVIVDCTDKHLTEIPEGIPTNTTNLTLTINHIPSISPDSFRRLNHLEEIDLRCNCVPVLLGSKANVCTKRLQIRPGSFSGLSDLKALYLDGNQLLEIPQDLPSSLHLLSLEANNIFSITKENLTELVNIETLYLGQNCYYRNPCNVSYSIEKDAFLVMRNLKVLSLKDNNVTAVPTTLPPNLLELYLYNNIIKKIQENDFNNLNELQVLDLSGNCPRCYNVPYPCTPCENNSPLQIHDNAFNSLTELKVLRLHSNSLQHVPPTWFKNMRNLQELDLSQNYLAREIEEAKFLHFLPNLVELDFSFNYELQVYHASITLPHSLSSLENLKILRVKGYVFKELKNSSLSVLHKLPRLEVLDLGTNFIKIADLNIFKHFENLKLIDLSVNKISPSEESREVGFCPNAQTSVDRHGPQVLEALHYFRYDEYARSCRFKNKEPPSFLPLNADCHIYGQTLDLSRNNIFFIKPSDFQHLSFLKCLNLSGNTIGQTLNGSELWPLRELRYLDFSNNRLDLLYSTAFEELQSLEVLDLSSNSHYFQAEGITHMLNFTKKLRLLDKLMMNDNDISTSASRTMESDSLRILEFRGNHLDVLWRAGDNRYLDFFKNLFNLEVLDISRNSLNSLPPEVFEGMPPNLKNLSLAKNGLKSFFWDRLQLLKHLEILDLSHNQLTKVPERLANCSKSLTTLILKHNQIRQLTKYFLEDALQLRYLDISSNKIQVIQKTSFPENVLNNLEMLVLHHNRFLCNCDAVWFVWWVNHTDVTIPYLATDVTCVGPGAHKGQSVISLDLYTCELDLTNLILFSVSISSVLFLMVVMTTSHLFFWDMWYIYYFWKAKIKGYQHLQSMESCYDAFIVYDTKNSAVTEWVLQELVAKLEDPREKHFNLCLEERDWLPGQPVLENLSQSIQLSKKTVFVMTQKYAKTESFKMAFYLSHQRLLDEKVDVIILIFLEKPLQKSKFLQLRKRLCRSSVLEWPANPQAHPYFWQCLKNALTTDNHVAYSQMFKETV

Cytochrome P450 3A4 [3] = target: T1, Cytochrome P450 3A4; test: Inhibition of CYP3A4 (unknown origin) using BFC as substrate; type: ADME
[4] = Metabolic stability in mouse liver microsomes assessed as compound remaining at 0.5 uM incubated for 10 mins in presence of NADPH by UV absorbance based assay; type: ADME, Microsome; conditions: read-out: Stability
[5] = Metabolic stability in human liver microsomes assessed as compound remaining at 0.5 uM incubated for 10 mins in presence of NADPH by UV absorbance based assay; type: ADME, Microsome; conditions: read-out: Stability
Cytochrome P450 2C8 = target: T3, Cytochrome P450 2C8 (Homo sapiens, UniProt P10632); test: Inhibition of CYP2C8 (unknown origin); type: ADME
T3 sequence (P10632 whole entry): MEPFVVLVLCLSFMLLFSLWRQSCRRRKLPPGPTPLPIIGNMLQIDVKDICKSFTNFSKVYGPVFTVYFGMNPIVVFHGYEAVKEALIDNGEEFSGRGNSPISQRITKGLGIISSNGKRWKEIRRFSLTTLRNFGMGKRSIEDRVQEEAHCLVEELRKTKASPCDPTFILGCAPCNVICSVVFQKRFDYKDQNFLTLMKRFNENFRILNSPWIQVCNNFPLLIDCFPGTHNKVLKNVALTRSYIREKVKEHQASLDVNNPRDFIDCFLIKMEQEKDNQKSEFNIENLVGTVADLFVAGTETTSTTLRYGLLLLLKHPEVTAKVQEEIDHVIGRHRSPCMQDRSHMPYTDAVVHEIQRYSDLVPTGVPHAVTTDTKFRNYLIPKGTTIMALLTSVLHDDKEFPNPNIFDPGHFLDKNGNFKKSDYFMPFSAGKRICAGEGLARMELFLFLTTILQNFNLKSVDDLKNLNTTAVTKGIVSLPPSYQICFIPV

[6] = Cytotoxicity against PHA-activated T-cells (unknown origin) assessed as inhibition of IL-2 induced cell proliferation measured after 72 hrs by MTS assay; type: toxicity, cell-based
Cytochrome P450 3A4 [7] = target: T1, Cytochrome P450 3A4; test: Inhibition of CYP3A4 (unknown origin) using BFC as substrate preincubated with compound followed by substrate addition at 5 mins; type: ADME
[8] = target: Voltage-gated inwardly rectifying potassium channel KCNH2 (Homo sapiens, UniProt Q12809); test: Inhibition of hERG; type: toxicity; conditions: for inhibition (INH): human
Sequence of Voltage-gated inwardly rectifying potassium channel KCNH2 (Q12809 whole entry): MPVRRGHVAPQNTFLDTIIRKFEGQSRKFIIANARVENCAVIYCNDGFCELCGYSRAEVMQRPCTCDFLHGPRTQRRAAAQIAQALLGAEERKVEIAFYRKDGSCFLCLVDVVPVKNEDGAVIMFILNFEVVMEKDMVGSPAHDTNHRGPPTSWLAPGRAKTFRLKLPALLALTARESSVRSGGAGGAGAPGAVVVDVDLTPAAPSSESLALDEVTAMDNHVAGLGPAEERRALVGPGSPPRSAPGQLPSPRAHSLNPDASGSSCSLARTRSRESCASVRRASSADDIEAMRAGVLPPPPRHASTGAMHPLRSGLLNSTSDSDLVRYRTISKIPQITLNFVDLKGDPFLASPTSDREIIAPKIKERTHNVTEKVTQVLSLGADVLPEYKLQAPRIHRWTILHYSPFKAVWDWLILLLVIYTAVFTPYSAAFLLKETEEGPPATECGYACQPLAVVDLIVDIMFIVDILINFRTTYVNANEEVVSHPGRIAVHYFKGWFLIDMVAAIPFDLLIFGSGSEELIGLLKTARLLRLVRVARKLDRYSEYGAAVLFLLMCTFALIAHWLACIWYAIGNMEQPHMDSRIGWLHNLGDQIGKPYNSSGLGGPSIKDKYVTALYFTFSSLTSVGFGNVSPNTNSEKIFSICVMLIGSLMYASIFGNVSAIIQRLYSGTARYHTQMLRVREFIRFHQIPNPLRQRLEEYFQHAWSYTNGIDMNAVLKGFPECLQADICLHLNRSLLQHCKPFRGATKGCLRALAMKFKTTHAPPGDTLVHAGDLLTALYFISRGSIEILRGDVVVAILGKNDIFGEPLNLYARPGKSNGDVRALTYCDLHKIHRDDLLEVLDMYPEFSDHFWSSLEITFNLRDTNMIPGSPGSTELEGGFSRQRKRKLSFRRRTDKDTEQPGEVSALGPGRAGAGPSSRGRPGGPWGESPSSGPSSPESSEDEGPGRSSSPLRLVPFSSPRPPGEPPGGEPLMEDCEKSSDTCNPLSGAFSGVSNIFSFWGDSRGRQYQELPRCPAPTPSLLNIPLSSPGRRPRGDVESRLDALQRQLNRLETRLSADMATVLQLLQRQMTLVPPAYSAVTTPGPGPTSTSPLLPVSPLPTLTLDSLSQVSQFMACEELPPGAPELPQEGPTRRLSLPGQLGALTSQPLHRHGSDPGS

Cytochrome P450 2C9 = Cytochrome P450 2C9 (Homo sapiens, UniProt P11712); test: Inhibition of CYP2C9 (unknown origin); type: ADME
Sequence of Cytochrome P450 2C9 (P11712 whole entry): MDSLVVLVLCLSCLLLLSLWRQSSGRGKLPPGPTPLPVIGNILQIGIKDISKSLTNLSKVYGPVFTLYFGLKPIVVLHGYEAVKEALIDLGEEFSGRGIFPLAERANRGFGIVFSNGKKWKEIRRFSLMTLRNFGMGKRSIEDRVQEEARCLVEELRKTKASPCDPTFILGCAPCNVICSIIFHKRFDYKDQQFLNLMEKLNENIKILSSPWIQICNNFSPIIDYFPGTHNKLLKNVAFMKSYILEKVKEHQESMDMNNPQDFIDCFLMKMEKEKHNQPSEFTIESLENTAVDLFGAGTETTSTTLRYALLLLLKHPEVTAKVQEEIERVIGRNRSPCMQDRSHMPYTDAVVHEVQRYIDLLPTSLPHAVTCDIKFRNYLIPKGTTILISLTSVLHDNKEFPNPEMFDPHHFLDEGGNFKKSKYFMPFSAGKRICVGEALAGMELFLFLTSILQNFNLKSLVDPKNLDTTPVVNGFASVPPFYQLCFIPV

Toll-like receptor 7 [9] = target: T4, Toll-like receptor 7 (Homo sapiens, UniProt Q9NYK1); test: Agonist activity at human TLR7 in HEK-Blue hTLR7 cells harboring SEAP reporter transgene incubated for 18 hrs by quanti-blue reagent based assay; type: cell-based
T4 sequence (Q9NYK1 whole entry): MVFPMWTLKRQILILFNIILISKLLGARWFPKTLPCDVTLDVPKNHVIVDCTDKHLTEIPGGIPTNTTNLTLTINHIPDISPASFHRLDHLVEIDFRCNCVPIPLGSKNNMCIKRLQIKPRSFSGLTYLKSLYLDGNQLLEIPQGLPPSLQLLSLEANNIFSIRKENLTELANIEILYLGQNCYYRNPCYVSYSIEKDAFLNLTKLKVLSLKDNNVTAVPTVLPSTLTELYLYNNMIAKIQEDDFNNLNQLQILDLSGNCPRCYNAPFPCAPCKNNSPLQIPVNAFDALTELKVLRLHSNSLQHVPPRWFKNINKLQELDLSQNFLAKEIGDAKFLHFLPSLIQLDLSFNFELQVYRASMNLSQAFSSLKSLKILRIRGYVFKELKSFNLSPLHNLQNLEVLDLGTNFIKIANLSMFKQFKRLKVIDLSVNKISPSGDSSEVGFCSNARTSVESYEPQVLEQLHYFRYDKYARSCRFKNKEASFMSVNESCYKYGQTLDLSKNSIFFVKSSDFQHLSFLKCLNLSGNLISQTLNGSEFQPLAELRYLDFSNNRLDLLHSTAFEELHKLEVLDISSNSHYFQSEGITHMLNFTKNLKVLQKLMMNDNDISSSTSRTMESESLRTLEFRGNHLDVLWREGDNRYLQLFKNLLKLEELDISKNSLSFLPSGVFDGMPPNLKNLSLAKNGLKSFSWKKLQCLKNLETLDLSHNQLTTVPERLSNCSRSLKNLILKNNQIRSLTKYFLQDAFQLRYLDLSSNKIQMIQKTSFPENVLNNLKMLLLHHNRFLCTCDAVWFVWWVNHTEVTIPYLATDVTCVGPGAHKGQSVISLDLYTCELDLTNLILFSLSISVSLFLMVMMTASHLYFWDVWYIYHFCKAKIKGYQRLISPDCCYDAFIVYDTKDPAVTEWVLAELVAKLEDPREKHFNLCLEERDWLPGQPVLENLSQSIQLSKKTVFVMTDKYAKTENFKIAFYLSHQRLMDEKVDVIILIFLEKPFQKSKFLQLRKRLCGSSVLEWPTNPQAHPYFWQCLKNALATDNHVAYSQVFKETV

Cytochrome P450 1A2 = target: T5, Cytochrome P450 1A2 (Homo sapiens, UniProt P05177); test: Inhibition of CYP1A2 (unknown origin); type: ADME
T5 sequence (P05177 whole entry): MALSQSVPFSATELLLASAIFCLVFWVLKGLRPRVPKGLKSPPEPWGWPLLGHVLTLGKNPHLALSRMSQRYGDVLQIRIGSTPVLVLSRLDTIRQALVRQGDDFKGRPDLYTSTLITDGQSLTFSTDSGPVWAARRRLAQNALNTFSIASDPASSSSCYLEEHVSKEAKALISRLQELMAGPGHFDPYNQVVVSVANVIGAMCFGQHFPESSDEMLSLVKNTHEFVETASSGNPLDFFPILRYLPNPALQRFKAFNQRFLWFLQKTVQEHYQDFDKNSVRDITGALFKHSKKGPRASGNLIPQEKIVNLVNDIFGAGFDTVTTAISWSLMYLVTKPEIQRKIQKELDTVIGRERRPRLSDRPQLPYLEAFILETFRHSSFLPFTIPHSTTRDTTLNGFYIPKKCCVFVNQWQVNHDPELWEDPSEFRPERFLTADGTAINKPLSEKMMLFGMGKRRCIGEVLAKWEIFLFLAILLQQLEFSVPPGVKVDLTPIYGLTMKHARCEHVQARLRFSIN

Sequence of Cytochrome P450 2D6 (P10635 whole entry): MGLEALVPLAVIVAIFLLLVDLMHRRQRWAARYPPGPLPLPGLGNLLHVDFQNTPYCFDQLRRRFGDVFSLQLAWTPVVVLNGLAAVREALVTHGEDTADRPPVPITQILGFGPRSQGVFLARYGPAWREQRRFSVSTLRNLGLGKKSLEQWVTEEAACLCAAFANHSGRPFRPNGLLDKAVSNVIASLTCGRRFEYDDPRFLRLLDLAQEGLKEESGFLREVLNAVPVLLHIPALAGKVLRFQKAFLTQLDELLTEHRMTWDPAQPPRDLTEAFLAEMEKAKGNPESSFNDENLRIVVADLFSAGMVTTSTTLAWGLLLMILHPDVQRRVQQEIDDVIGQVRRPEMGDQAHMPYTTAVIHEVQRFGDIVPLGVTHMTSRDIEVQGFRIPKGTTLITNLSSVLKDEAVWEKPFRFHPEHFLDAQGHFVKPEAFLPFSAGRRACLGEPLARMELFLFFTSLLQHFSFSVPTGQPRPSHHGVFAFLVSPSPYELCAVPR
Sequence of Cytochrome P450 2C19 (P33261 whole entry): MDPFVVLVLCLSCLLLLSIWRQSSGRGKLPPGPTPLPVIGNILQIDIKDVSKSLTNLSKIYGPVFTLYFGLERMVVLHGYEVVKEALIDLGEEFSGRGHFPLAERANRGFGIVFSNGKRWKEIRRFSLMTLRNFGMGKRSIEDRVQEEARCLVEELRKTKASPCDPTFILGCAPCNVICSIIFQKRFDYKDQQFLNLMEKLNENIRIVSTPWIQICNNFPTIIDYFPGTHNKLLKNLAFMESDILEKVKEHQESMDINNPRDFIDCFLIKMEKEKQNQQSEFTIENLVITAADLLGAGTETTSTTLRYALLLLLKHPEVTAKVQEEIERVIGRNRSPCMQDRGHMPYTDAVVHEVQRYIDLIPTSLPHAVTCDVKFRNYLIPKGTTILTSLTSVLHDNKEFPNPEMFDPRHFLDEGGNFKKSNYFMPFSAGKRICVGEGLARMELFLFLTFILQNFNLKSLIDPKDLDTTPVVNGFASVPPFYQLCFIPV

Row | SMILES | IC50 (Cytochrome P450 2D6) [µM] | IC50 (Cytochrome P450 2C19) [µM] | IC50 (Cytochrome P450 3A4 [1]) [µM] | EC50 (Toll-like receptor 7 [2]) [µM] | IC50 (Cytochrome P450 3A4 [3]) [µM] | remaining at 10 min, 0.5 µM [4] [%] | remaining at 10 min, 0.5 µM [5] [%] | IC50 (Cytochrome P450 2C8) [µM] | IC50 at 72 h [6] [µM] | IC50 (Cytochrome P450 3A4 [7]) [µM] | IC50 [8] [µM] | IC50 (Cytochrome P450 2C9) [µM] | EC50 (Toll-like receptor 7 [9]) [µM] | IC50 (Cytochrome P450 1A2) [µM] | further results
1 | CCC[C@@H](CCO)Nc1nc(N)nc2cnn(Cc3ncc(C4CCC5(CC4)CN(C(C)C)C5)cc3OC)c12 | > 20 | > 20 | > 20 | 0.048 | > 20 | 87 | 88 | > 20 | > 25 | > 20 | 13 | > 20 | 0.021 | > 20 | –
2 | CCC[C@@H](CCO)Nc1nc(N)nc2cnn(Cc3ncc(C4CC5(CNC5)C4)cc3OC)c12 | > 17 | > 17 | > 17 | 1.6 | > 17 | 100 | 87 | > 17 | > 25 | > 17 | > 50 | > 17 | 0.37 | > 17 | –
3 | CCCCNc1nc(N)nc2cnn(Cc3ncc(C4CCNCC4)cc3OC)c12 | > 20 | > 20 | > 20 | 0.984 | > 20 | 97 | 100 | > 20 | > 25 | > 20 | 19 | > 20 | 0.084 | > 20 | –
4 | CCCCNc1nc(N)nc2cnn(Cc3ccc(N4CCNCC4)cc3OC)c12 | > 20 | > 20 | > 20 | 1.95 | > 20 | 5 | 100 | > 20 | 20 | > 20 | – | > 20 | 0.78 | > 20 | inhibition (INH) [8]: Not Active
5 | CCC[C@@H](CCO)Nc1nc(N)nc2cnn(Cc3ncc(C4CCN(CCO)CC4)cc3OC)c12 | > 20 | > 20 | > 20 | 0.124 | > 20 | 100 | 93 | > 20 | > 25 | > 20 | > 50 | > 20 | 0.049 | > 20 | –
6 | CCCCNc1nc(N)nc2cnn(Cc3ccc(C4CCNCC4)cc3OC(F)F)c12 | – | – | – | 0.465 | – | 17 | 100 | – | > 25 | – | – | – | 0.087 | – | inhibition (INH) (Cytochrome P450 2D6; human): Not Active; inhibition (INH) (Cytochrome P450 2C19; human): Not Active; inhibition (INH) (Cytochrome P450 3A4 [3]; human): Not Active; inhibition (INH) (Cytochrome P450 2C8; human): Not Active; inhibition (INH) [8]: Not Active; inhibition (INH) (Cytochrome P450 2C9; human): Not Active; inhibition (INH) (Cytochrome P450 1A2; human): Not Active
7 | CCC[C@@H](CCO)Nc1nc(N)nc2cnn(Cc3ncc(C4CCC5(CC4)CNC5)cc3OC)c12 | > 14 | > 14 | > 14 | 0.177 | > 14 | 44 | 100 | > 14 | > 25 | > 14 | 14 | > 14 | 0.133 | > 14 | –
